Results from paper PMC7023430, “4-Aminobenzoic Acid Derivatives: Converting Folate Precursor to Antimicrobial and Cytotoxic Agents” (Biomolecules, 2019).
Converted amounts (≈) assume the structure as drawn. Read-outs that look alike come from different tables or passages of the source.

Legend:
[1] = test system: Escherichia coli ATCC 25922, CCM 3954; experiment: Antibacterial microdilution broth method, E. coli; type: cell-based; settings: Escherichia coli
[2] = test system: Aspergillus fumigatus 231; experiment: Antifungal microdilution broth method, A. fumigatus; type: cell-based
Procedure, shortened: (§1)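 EUCAST-based broth microdilution, modified, in RPMI-1640 with L-glutamine, 2% glucose, MOPS-buffered to pH 7.0; compounds dissolved in DMSO and twofold diluted. MIC read visually, in duplicate, valid only if replicates agree within one dilution step.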

[3] = test system: Mycobacterium kansasii 235/80; experiment: Antimycobacterial micromethod in Šula's medium, M. kansasii 235/80; type: cell-based
[4] = test system: Mycobacterium avium 330/88; experiment: Antimycobacterial micromethod in Šula's medium, M. avium; type: cell-based
[5] = test system: Lichtheimia corymbifera 272; experiment: Antifungal microdilution broth method, L. corymbifera; type: cell-based
Procedure, shortened: as §1

[6] = test system: Staphylococcus aureus ATCC 29213, CCM 4223; experiment: Antibacterial microdilution broth method, S. aureus; type: cell-based
[7] = test system: Pseudomonas aeruginosa ATCC 27853, CCM 3955; experiment: Antibacterial microdilution broth method, P. aeruginosa; type: cell-based; settings: Pseudomonas aeruginosa, P. aeruginosa
Candida glabrata 20/I = experiment: Antifungal microdilution broth method, C. glabrata; type: cell-based; settings: Nakaseomyces glabratus
Procedure, shortened: as §1

[8] = test system: Staphylococcus epidermidis H 6966/08; experiment: Antibacterial microdilution broth method, S. epidermidis; type: cell-based; settings: Staphylococcus epidermidis, H6966/08, S. epidermidis
Trichosporon asahii 1188 = experiment: Antifungal microdilution broth method, T. asahii; type: cell-based
Procedure, shortened: as §1

[9] = test system: Trichophyton interdigitale 445; experiment: Antifungal microdilution broth method, T. interdigitale; type: cell-based
Procedure, shortened: as §1

[10] = test system: Klebsiella pneumoniae D 11750/08; experiment: Antibacterial microdilution broth method, K. pneumoniae; settings: K. pneumoniae D 11750/08; for MIC KP 24 h: 24 h incubation; for MIC KP 48 h: 48 h incubation
[11] = test system: Mycobacterium tuberculosis H37Rv (331/88); experiment: Antimycobacterial micromethod in Šula's medium, M. tuberculosis; type: cell-based
[12] = test system: Enterococcus faecalis ATCC 29212, CCM 4224; experiment: Antibacterial microdilution broth method, E. faecalis; type: cell-based; settings: Enterococcus faecalis
Candida krusei E28 = experiment: Antifungal microdilution broth method, C. krusei; type: cell-based; settings: Pichia kudriavzevii
Procedure, shortened: as §1

[13] = test system: M. kansasii 6509/96 (clinical isolate); experiment: Antimycobacterial micromethod in Šula's medium, M. kansasii 6509/96; type: cell-based; settings: Mycobacterium kansasii
[14] = 24 h incubation, read-out: MIC EC 24 h
[15] = 48 h incubation, read-out: MIC EC 48 h
[16] = 235/80, 168 h, 7 days incubation at 37 °C, read-out: MIC M. kansasii 235/80 7 d
[17] = 235/80, 336 h, 14 days incubation at 37 °C, read-out: MIC M. kansasii 235/80 14 d
[18] = 235/80, 504 h, 21 days incubation at 37 °C, read-out: MIC M. kansasii 235/80 21 d
[19] = 330/88, 336 h, 14 days incubation at 37 °C, read-out: MIC M. avium 330/88 14 d
[20] = 330/88, 504 h, 21 days incubation at 37 °C, read-out: MIC M. avium 330/88 21 d
[21] = 24 h incubation, read-out: MIC SA 24 h
[22] = 48 h incubation, read-out: MIC SA 48 h
[23] = 24 h incubation, read-out: MIC PA 24 h
[24] = 48 h incubation, read-out: MIC PA 48 h
[25] = 24 h incubation, read-out: MIC SE 24 h
[26] = 48 h incubation, read-out: MIC SE 48 h
[27] = 336 h, 14 days incubation at 37 °C, read-out: MIC Mtb. 331/88 14 d
[28] = 504 h, 21 days incubation at 37 °C, read-out: MIC Mtb. 331/88 21 d
[29] = 24 h incubation, read-out: MIC EF 24 h
[30] = 48 h incubation, read-out: MIC EF 48 h
[31] = 168 h, 7 days incubation at 37 °C, read-out: MIC M. kansasii 6509/96 7 d
[32] = 336 h, 14 days incubation at 37 °C, read-out: MIC M. kansasii 6509/96 14 d
[33] = 504 h, 21 days incubation at 37 °C, read-out: MIC M. kansasii 6509/96 21 d

| Structure (SMILES) | MIC [1, 14] | MIC [1, 15] | MIC ([2]; 24 h, read-out: MIC AF 24 h) | MIC ([2]; 48 h, read-out: MIC AF 48 h) | MIC [3, 16] | MIC [3, 17] | MIC [3, 18] | MIC [4, 19] | MIC [4, 20] | MIC ([5]; 24 h, read-out: MIC LC 24 h) | MIC ([5]; 48 h, read-out: MIC LC 48 h) | MIC [6, 21] | MIC [6, 22] | MIC [7, 23] | MIC [7, 24] | MIC (Candida glabrata 20/I; 24 h, read-out: MIC CG 24 h) | MIC (Candida glabrata 20/I; 48 h, read-out: MIC CG 48 h) | MIC [8, 25] | MIC [8, 26] | MIC (Trichosporon asahii 1188; 24 h, read-out: MIC TA 24 h) | also measured |
| --- | --- | --- | --- | --- | --- | --- | --- | --- | --- | --- | --- | --- | --- | --- | --- | --- | --- | --- | --- | --- | --- |
| O=C(O)c1ccc(N=Cc2cc(Cl)cc(Cl)c2O)cc1 [1n, 4-[(3,5-Dichloro-2-hydroxybenzylidene)amino]benzoic acid] | > 500 µM | > 500 µM | 500 µM (≈ 155 µg/mL) | 500 µM (≈ 155 µg/mL) | 500 µM (≈ 155 µg/mL) | 500 µM (≈ 155 µg/mL) | 500 µM (≈ 155 µg/mL) | 1000 µM (≈ 310 µg/mL) | 1000 µM (≈ 310 µg/mL) | 500 µM (≈ 155 µg/mL) | 500 µM (≈ 155 µg/mL) | 125 µM (≈ 38.8 µg/mL) | 125 µM (≈ 38.8 µg/mL) | > 500 µM | > 500 µM | 125 µM (≈ 38.8 µg/mL) | 125 µM (≈ 38.8 µg/mL) | 250 µM (≈ 77.5 µg/mL) | 250 µM (≈ 77.5 µg/mL) | 125 µM (≈ 38.8 µg/mL) | MIC (Trichosporon asahii 1188; 48 h, read-out: MIC TA 48 h): 125 µM (≈ 38.8 µg/mL); MIC ([9]; 72 h, read-out: MIC TI 72 h): 250 µM (≈ 77.5 µg/mL); MIC ([9]; 120 h, read-out: MIC TI 120 h): 250 µM (≈ 77.5 µg/mL); MIC KP 24 h [10]: >500 µM; MIC KP 48 h [10]: >500 µM; MIC [11, 27]: 500 µM (≈ 155 µg/mL); MIC [11, 28]: 500 µM (≈ 155 µg/mL); MIC [12, 29]: > 500 µM; MIC [12, 30]: > 500 µM; MIC (Candida krusei E28; 24 h, read-out: MIC CK 24 h): 125 µM (≈ 38.8 µg/mL); MIC (Candida krusei E28; 48 h, read-out: MIC CK 48 h): 125 µM (≈ 38.8 µg/mL); MIC [13, 31]: 250 µM (≈ 77.5 µg/mL); MIC [13, 32]: 500 µM (≈ 155 µg/mL); MIC [13, 33]: 500 µM (≈ 155 µg/mL) |
| O=C(O)c1ccc(N=Cc2cc(Cl)cc(Br)c2O)cc1 [1o, 4-[(3-Bromo-5-chloro-2-hydroxybenzylidene)amino]benzoic acid] | 500 µM (≈ 177 µg/mL) | 500 µM (≈ 177 µg/mL) | 250 µM (≈ 88.6 µg/mL) | 250 µM (≈ 88.6 µg/mL) | 250 µM (≈ 88.6 µg/mL) | 500 µM (≈ 177 µg/mL) | 500 µM (≈ 177 µg/mL) | 500 µM (≈ 177 µg/mL) | 500 µM (≈ 177 µg/mL) | 500 µM (≈ 177 µg/mL) | 500 µM (≈ 177 µg/mL) | 15.6 µM (≈ 5.54 µg/mL) | 15.6 µM (≈ 5.54 µg/mL) | > 500 µM | > 500 µM | 15.6 µM (≈ 5.54 µg/mL) | 15.6 µM (≈ 5.54 µg/mL) | 15.6 µM (≈ 5.54 µg/mL) | 31.2 µM (≈ 11.1 µg/mL) | 31.2 µM (≈ 11.1 µg/mL) | MIC (Trichosporon asahii 1188; 48 h, read-out: MIC TA 48 h): 31.2 µM (≈ 11.1 µg/mL); MIC ([9]; 72 h, read-out: MIC TI 72 h): 62.5 µM (≈ 22.2 µg/mL); MIC ([9]; 120 h, read-out: MIC TI 120 h): 62.5 µM (≈ 22.2 µg/mL); MIC KP 24 h [10]: 500 µM (≈ 177 µg/mL); MIC KP 48 h [10]: 500 µM (≈ 177 µg/mL); MIC [11, 27]: 250 µM (≈ 88.6 µg/mL); MIC [11, 28]: 500 µM (≈ 177 µg/mL); MIC [12, 29]: 62.5 µM (≈ 22.2 µg/mL); MIC [12, 30]: 62.5 µM (≈ 22.2 µg/mL); MIC (Candida krusei E28; 24 h, read-out: MIC CK 24 h): 62.5 µM (≈ 22.2 µg/mL); MIC (Candida krusei E28; 48 h, read-out: MIC CK 48 h): 62.5 µM (≈ 22.2 µg/mL); MIC [13, 31]: 500 µM (≈ 177 µg/mL); MIC [13, 32]: 500 µM (≈ 177 µg/mL); MIC [13, 33]: 500 µM (≈ 177 µg/mL) |
